The results in this text go back to ChEMBL document CHEMBL1201862, “PubChem BioAssay data set” (2004).

Test systems include MDA-MB-231; ACHN; MDA-N; SN12C; SR; BT-549; KM12; EKVX; IGROV-1; NCI-H522; MOLT-4; T47D; PC-3; RXF 393; TK-10.
Experiment in all cases: growth of human tumour cells (NCI), 48 h

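These data come from cells grown in 96-well plates and exposed to compound for 48 hours at five concentrations. GI50 is the concentration that inhibits growth by half.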 Calls of active or inactive are those of the source. Rule as the data show it: active = GI50 up to about 1.1 µM and inactive = higher.

Regarding `CN1c2ccccc2C(=O)NC12CCN(CCCC(=O)c1ccc(F)cc1)CC2`, the GI50 in the assay with MDA-MB-231 is 40.9 µM (inactive); in the assay with ACHN it was > 100 µM (inactive); in the assay on MDA-N it was 88.7 µM (inactive); in the assay with SN12C, > 100 µM (inactive); in the assay with SR, 32.4 µM (inactive); in the assay on BT-549, 58.3 µM (inactive). The GI50 in the assay with KM12 is > 100 µM (inactive); with EKVX it was > 100 µM (inactive); with IGROV-1 it was > 100 µM (inactive); in the assay on NCI-H522 it was 26.7 µM (inactive); in the assay on MOLT-4 it was 21.1 µM (inactive); with T47D, 29 µM (inactive). Moreover, the figures for the GI50 in the assay on PC-3 and in the assay with RXF 393 were 78.2 µM (inactive) and 62.8 µM (inactive), respectively.

Regarding `Cc1cc(S(=O)(=O)Nc2nc(Nc3ccccc3)n[nH]2)c(SSc2cc(Cl)c(C)cc2S(=O)(=O)Nc2nc(Nc3ccccc3)n[nH]2)cc1Cl`, the GI50 with MDA-MB-231 is 32.2 µM (inactive); in the assay on ACHN, > 100 µM (inactive); with MDA-N it was > 100 µM (inactive); with SN12C, > 100 µM (inactive); in the assay with SR, 40.2 µM (inactive); in the assay with TK-10, 90.8 µM (inactive). Moreover, the GI50 in the assay on BT-549 was > 100 µM (inactive); with KM12, > 100 µM (inactive); in the assay with EKVX it was > 100 µM (inactive); with IGROV-1 it was > 100 µM (inactive); with MOLT-4, 35.7 µM (inactive); in the assay on T47D, 67.5 µM (inactive). For the same compound, the figures for the GI50 in the assay on PC-3 and with RXF 393 were > 100 µM (inactive) and > 10 µM (inactive), respectively.

For `NNC(=O)CCc1ccc2ccc3ccccc3c2c1`, the GI50 is > 100 µM (inactive) with MDA-MB-231; > 100 µM (inactive) in the assay with ACHN; > 100 µM (inactive) in the assay on MDA-N; 68.1 µM (inactive) in the assay on SN12C; > 100 µM (inactive) in the assay with SR; > 100 µM (inactive) with TK-10. Moreover, the GI50 in the assay on BT-549 was 55.8 µM (inactive); in the assay on KM12 it was > 100 µM (inactive); with EKVX, 16.4 µM (inactive); with IGROV-1, > 100 µM (inactive); with NCI-H522 it was 28.8 µM (inactive); in the assay on MOLT-4, 63.5 µM (inactive). The GI50 in the assay with T47D is 70.6 µM (inactive); with PC-3, 67.3 µM (inactive); with RXF 393, 94.4 µM (inactive).

In the case of `COC(=O)CCC(C)C1CCC2C3CCC4CC5CCC4(C)C3(O5)C(Br)C(Br)C12C` (centres undefined), the GI50 with MDA-MB-231, with ACHN, in the assay on MDA-N, in the assay on SN12C, in the assay with SR and in the assay with TK-10 was > 100 µM (inactive) throughout. Moreover, the GI50 in the assay on BT-549 was > 100 µM (inactive); in the assay on KM12, > 100 µM (inactive); with EKVX, > 100 µM (inactive); in the assay with IGROV-1, > 100 µM (inactive); with NCI-H522, 48.2 µM (inactive); with MOLT-4 it was > 100 µM (inactive). The GI50 with T47D was 61.9 µM (inactive); in the assay with PC-3 it was > 100 µM (inactive); in the assay with RXF 393, > 100 µM (inactive).

As for `C1CC2=C(C1)[Se]C(=C1Sc3nsnc3S1)[Se]2`, the GI50 in the assay on MDA-MB-231 was > 100 µM (inactive); with ACHN it was > 100 µM (inactive); with MDA-N, 21.7 µM (inactive); in the assay on SN12C it was > 100 µM (inactive); in the assay on TK-10, > 100 µM (inactive); with BT-549, > 100 µM (inactive). The GI50 in the assay on KM12, in the assay with EKVX, in the assay on IGROV-1, with NCI-H522, with MOLT-4 and with T47D was > 100 µM (inactive) each time. Moreover, in the assay on PC-3, the GI50 is > 100 µM (inactive).

Consider `COc1ccc(OC)c(SC(CC(=O)c2ccccc2)c2ccccc2)c1` (centres undefined), for which the GI50 in the assay on MDA-MB-231 is 7.45 µM (inactive); in the assay on ACHN it was 19.6 µM (inactive); in the assay with SN12C, 17.9 µM (inactive); with SR it was 7.6 µM (inactive); in the assay on TK-10 it was 17.2 µM (inactive); in the assay on KM12 it was 4.06 µM (inactive). The GI50 in the assay with EKVX is 15.2 µM (inactive); in the assay on IGROV-1 it was 11 µM (inactive); with NCI-H522, 14.6 µM (inactive); in the assay on MOLT-4, 0.877 µM (active); in the assay with T47D, 10.1 µM (inactive); in the assay on PC-3, 14.8 µM (inactive). Further, in the assay on RXF 393, the GI50 is 15.8 µM (inactive).

As to `COc1cc(/C=C2\N=C(c3ccccc3)N(c3ccc(C(=O)c4ccccc4)cc3N3C(=O)/C(=C/c4cc(OC)c(OC)c(OC)c4)N=C3c3ccccc3)C2=O)cc(OC)c1OC`, the GI50 in the assay on MDA-MB-231 was 16.9 µM (inactive); in the assay with ACHN, 22.6 µM (inactive); with MDA-N, 2.73 µM (inactive); in the assay on SN12C, 23.1 µM (inactive); in the assay on TK-10 it was 16.8 µM (inactive); in the assay on BT-549 it was 14.4 µM (inactive). Further, the GI50 in the assay with KM12 is 13.2 µM (inactive); in the assay on EKVX, 24.8 µM (inactive); in the assay on IGROV-1, 15.7 µM (inactive); in the assay on NCI-H522, 4.65 µM (inactive); with MOLT-4 it was 4.97 µM (inactive); in the assay with T47D it was 4.93 µM (inactive). For the same compound, the GI50 in the assay on PC-3 is 12.6 µM (inactive); in the assay with RXF 393, 11.2 µM (inactive).

Take `COC(=O)[C@@H]1C=C[C@H](NC(C)=O)C1`: the GI50 in the assay on MDA-MB-231, with MDA-N, in the assay with SN12C, in the assay with SR, with TK-10 and with BT-549 was > 100 µM (inactive) throughout. The GI50 in the assay with KM12, in the assay with IGROV-1, with MOLT-4, in the assay with T47D, with PC-3 and in the assay on RXF 393 was > 100 µM (inactive) each time.

`CC(C)(C)[Si](C)(C)OCC1OC(n2cnc3c(N)ncnc32)CC1OS(C)(=O)=O` (centres undefined): the GI50 in the assay with MDA-MB-231 was 22.1 µM (inactive); in the assay on MDA-N, > 100 µM (inactive); with SN12C, > 100 µM (inactive); in the assay with SR it was > 100 µM (inactive); in the assay on TK-10, 42 µM (inactive); with BT-549, 54 µM (inactive). For the same compound, the GI50 was > 100 µM (inactive) in the assay with KM12; > 100 µM (inactive) in the assay on IGROV-1; > 100 µM (inactive) in the assay on MOLT-4; > 100 µM (inactive) in the assay with T47D; > 100 µM (inactive) in the assay with PC-3; 25.6 µM (inactive) with RXF 393.

On to `O=[N+]([O-])c1ccccc1S(=O)(=O)c1cccc2c1NCCC2`, for which the GI50 in the assay on MDA-MB-231 was > 100 µM (inactive); in the assay with ACHN it was 55.8 µM (inactive); in the assay with MDA-N, 28.1 µM (inactive); with SN12C it was 86.7 µM (inactive); in the assay on SR, 48.2 µM (inactive); with TK-10, > 100 µM (inactive). In addition, the GI50 in the assay on BT-549 was 32.1 µM (inactive); with KM12, 96.4 µM (inactive); with EKVX, 99.3 µM (inactive); with IGROV-1, 34.3 µM (inactive); in the assay on MOLT-4, 21.5 µM (inactive); with PC-3 it was 27.9 µM (inactive). Moreover, the GI50 in the assay on RXF 393 is 37.8 µM (inactive).

For the compound `COc1nc2cccc(C(O)c3ccccc3)c2nc1-c1ccccc1` (centres undefined), the GI50 in the assay with MDA-MB-231 is 8.41 µM (inactive); in the assay with ACHN, 5.83 µM (inactive); in the assay with MDA-N, 1.55 µM (inactive); in the assay with SN12C, 10.9 µM (inactive); in the assay with SR, 1.75 µM (inactive); with TK-10, 22.3 µM (inactive). The GI50 in the assay on BT-549 is 13.9 µM (inactive); with KM12, 6.04 µM (inactive); in the assay on EKVX it was 4.08 µM (inactive); in the assay with IGROV-1 it was 5.09 µM (inactive); in the assay on NCI-H522, 8.95 µM (inactive); in the assay on MOLT-4, 5.11 µM (inactive). Moreover, the GI50 is 8.57 µM (inactive) in the assay with T47D, 4.46 µM (inactive) in the assay with PC-3 and 3.64 µM (inactive) in the assay on RXF 393.

Turning to `NC(CCCCCCCCCCP(=O)(O)O)C(=O)O` (centres undefined), the GI50 with MDA-MB-231, in the assay with ACHN, in the assay on MDA-N, in the assay with SN12C, in the assay on SR and in the assay with TK-10 was > 100 µM (inactive) throughout. For the same compound, the GI50 with KM12 is > 100 µM (inactive); with EKVX, > 100 µM (inactive); in the assay on IGROV-1 it was > 100 µM (inactive); in the assay with NCI-H522, 85.5 µM (inactive); in the assay on MOLT-4 it was > 100 µM (inactive); in the assay with T47D, > 100 µM (inactive). Besides, the GI50 with PC-3 and in the assay on RXF 393 was > 100 µM (inactive) in each case.

`Cc1ccc2oc3c(ccc(=O)n3C)c(=O)c2c1`: the GI50 with MDA-MB-231, in the assay on ACHN, with MDA-N, with SN12C, with SR and in the assay with TK-10 was > 100 µM (inactive) each time. Besides, the GI50 was > 100 µM (inactive) with KM12; 89.7 µM (inactive) in the assay on EKVX; > 100 µM (inactive) in the assay with IGROV-1; > 100 µM (inactive) in the assay with NCI-H522; > 100 µM (inactive) in the assay on T47D; > 100 µM (inactive) in the assay on PC-3. In the assay on RXF 393, the GI50 was > 100 µM (inactive).

With `COC(=S)OC1CC(n2cnc3c(N)ncnc32)OC1CO[Si](C)(C)C(C)(C)C` (centres undefined), the GI50 in the assay on MDA-MB-231 was 18.8 µM (inactive); with MDA-N, 18.5 µM (inactive); with SN12C, 20.4 µM (inactive); in the assay with SR it was 17.5 µM (inactive); in the assay with TK-10, 33.3 µM (inactive); in the assay with BT-549 it was 21.9 µM (inactive). Moreover, the GI50 with KM12 is 23.7 µM (inactive); in the assay with IGROV-1, 17.6 µM (inactive); with MOLT-4 it was 5.24 µM (inactive); in the assay on T47D, 11.8 µM (inactive); with PC-3, 12.1 µM (inactive); in the assay on RXF 393 it was 12.1 µM (inactive).
